Laboratory results from patent publication US9554979B2, “Hair care compositions and methods of use” (The Procter & Gamble Company, priority 2011, dated 2017).
Like-named read-outs stand apart in the source and are kept apart here.

What was measured:
[1] = Experimentally observed apigenin solubility in solubilizing agents and solvents; assay type: physicochemical
Source text: Non-limiting examples of solubilizing agents, which have suitable Hansen Solubility Parameters and may be used to solubilize apigenin include triethanolamine (CAS No. 102-71-6); diethanolamine (CAS No. 203-868-0); ethanolamine (CAS No. 141-43-5); N-methylformamide (CAS No. 123-39-7); 2-dimethylaminoethanol (CAS No. 203-542-8); 2-dimethylamino-2-propanol (108-16-7); ethylenediamine (CAS No. 107-15-3); 2-amino-2-methyl-1-propanol (CAS No. 124-68-5); laurocapram (CAS No. 59227-89-3); and dimethyl capramide (Spectrasolv, CAS No. 14433-76-2). Non-limiting examples of solvents, which have suitable Hansen Solubility Parameters and may be used in combination with one or more solubilizing agents include dipropyleneglycol (CAS No. 110-98-5); propylene glycol (Hydrolite™ 5, CAS No. […]); butylene glycol (CAS No. 107-88-0); 1,4-butanediol (CAS No. 110-63-4); 3-allyloxy-1,2-propanediol (CAS No. 123-34-2); dipropylene glycol n-butyl ether (CAS No. 29911-28-2); 1,2-hexanediol (CAS No. 6920-22-5); dimethyl isosorbide (Arlasolve™ CAS No. 5306-85-4); ethanol (CAS No. 64-17-5); 1,3-butanediol (CAS No. 107-88-0); 1,3-propanediol (CAS No. 504-63-2); 2,2′-thiodiethanol (CAS No. 111-48-8); and 1,6-hexanediol (CAS No. 629-11-8). Table 2 provides a summary of various solubilizing agents and solvents and their respective HSP values, along with experimentally observed apigenin solubility.

[2] = Qualitative experimental solubility scoring of apigenin in 32 solvents; assay type: physicochemical; set-up: key: 1 = Completely Dissolved; 2 = Very Swollen; 3 = Swollen; 4 = Slightly Swollen; 5 = Hardly Swollen; 6 = Not touched; — = Assignment Unclear
Experimental: (§1) HSPs and the solubility sphere for apigenin are optimized using the fitting method in the software HSPIP version 3.1.06 from Charles M. Hansen Consulting, Hørsholm, Denmark, hansen-solubility.com. Qualitative experimental solubilities for apigenin in 32 diverse potential solvents are determined using the scoring system at the bottom of Table 1. In the fitting function within HSPiP, solvents with scores of 1 and those with scores of 2-5 are categorized as “good” and “bad” solvents, respectively. […] Because the radius can be unbounded, fits with radii larger than 95% of the radius distribution are removed from these 50 trials (≦8.5 MPa^0.5). • 2. Determine the ranges for δD, δP, δH for the remaining fits. • 3. Locate the fit closest to this point using the Ra equation above. • 4. Chose the values for δD, δP, δH from Step 2 for the HSP's and the value of Ra from Step 3 for the radius.

[3] = Apigenin premixtures with various solubilizing agents, solubility; assay type: physicochemical; settings: organic solvent or mixture, thermodynamic from solid
Experimental: According to another embodiment of the invention, a process for preparing a hair care composition includes mixing apigenin and a solubilizing agent at a temperature sufficient to allow dissolution of the apigenin in the solubilizing agent to form a premixture; combining the premixture with an aqueous carrier to form the hair care composition; and optionally, adjusting the pH of the hair care composition with acid to within a range from about 3 to about 10. The premixture is prepared by combining apigenin and one or more solubilizing agents. Solubilization energy (e.g., stiffing, sonication, milling, heat, etc.) may be applied to accelerate the dissolution process. For example, a premixture of apigenin in triethanolamine may be prepared by combining apigenin and triethanolamine in a single vessel and heating the mixture to 70° C. while stirring until a clear solution results. According to one aspect of the exemplary method of making the premixture, the combined apigenin and triethanolamine are mixed at 50-100 rpm using a IKA RET CV-S1 mixer. According to another aspect, the combination is mixed at 300-500 rpm using a IKA Eurostar PWR CV-S1 mixer.

[4] = in water and nearly all solvents suitable for pharmaceutical, cosmetic, and food additive formulations (practically insoluble); cited from earlier work
[5] = Hansen Solubility Parameter fitting for apigenin (HSPiP); settings: fitted in HSPiP v. 3.1.06 from solubility scores in 32 solvents
Experimental: as §1
Using this protocol, apigenin HSP values and solvent radius are determined to be δD=18.7, δP=13.5, δH=13.9 and Ra=6.8 (all in MPa^0.5). This sphere defines the initial region encompassing solvents into which apigenin will be soluble. (Note HSPiP v. 3.1.06 is used herein to determine all HSPs by 1) lookup if available within the program's internal database; 2) estimation if not in the database using the Y-MB method; or 3) via the procedure described above (apigenin only).)

## O=c1cc(-c2ccc(O)cc2)oc2cc(O)cc(O)c12 [apigenin, 5,7-dihydroxy-2-(4-hydroxyphenyl)-4H-1-benzopyran-4-one]
[1]; in 1,2-hexanediol at 90 C.
  Experimental solubility: 0.4% at 90 C.
[1]; in 1,3-butanediol at 98 C.
  Experimental solubility: 1.52% at 98 C.
[1]; in 1,3-propanediol at 100 C.
  Experimental solubility: 0.73% at 100 C.
[1]; in 1,4-butanediol at 110 C.
  Experimental solubility: 1.0% at 110 C.
[1]; in 1,6-Hexanediol at 137 C.
  Experimental solubility: 4.12% at 137 C.
[1]; in 2,2′-thiodiethanol at 103 C.
  Experimental solubility: 0.47% at 103 C.
[1]; in 2-amino-2-methyl-1-propanol at 71 C.
  Experimental solubility: 20.03% at 71 C.
[1]; in 2-dimethylamino-2-propanol (CAS 108-16-7) at 21 C.
  Experimental solubility: 20.18% at 21 C.
[1]; in 2-dimethylaminoethanol at 29 C.
  Experimental solubility: 19.95% at 29 C.
[1]; in 3-allyloxy-1,2-propanediol at 120 C.
  Experimental solubility: 1.0% at 120 C.
[1]; in Dimethyl capramide at RT
  Experimental solubility: 16.0% at RT
[1]; in Ethanol at 21 C. and 50 C.
  Experimental solubility: 0.32% at 21 C. and 50 C.
[1]; in Laurocapram at 21 C.
  Experimental solubility: 13.0% at 21 C.
[1]; in N-methylformamide
  Experimental solubility: Ppt upon cooling
[1]; in butylene glycol at 98 C.
  Experimental solubility: 1.52% at 98 C.
[1]; in diethanolamine at 128 C.
  Experimental solubility: 20.25% at 128 C.
[1]; in dimethyl isosorbide at 100 C.
  Experimental solubility: 1.54% at 100 C.
[1]; in dipropylene glycol n-butyl ether at 90 C.
  Experimental solubility: 0.6% at 90 C.
[1]; in dipropyleneglycol at 115 C.
  Experimental solubility: 2.19% at 115 C.
[1]; in ethanolamine at 76 C.
  Experimental solubility: 20.31% at 76 C.
[1]; in ethylenediamine at 28 C.
  Experimental solubility: 20.03% at 28 C.
[1]; in propylene glycol (CAS 5343-92-0) at 100 C.
  Experimental solubility: 0.62% at 100 C.
[1]; in triethanolamine at 165 C.
  Experimental solubility: 12.7% at 165 C.
[2]; in 1,4-Dioxane
  Solubility Score: 5
[2]; in 1-Butanol
  Solubility Score: 4
[2]; in 2-Phenoxy Ethanol
  Solubility Score: 4
[2]; in 2-Propanol
  Solubility Score: 4
[2]; in Acetone
  Solubility Score: 5
[2]; in Acetonitrile
  Solubility Score: 5
[2]; in Carbon Tetrachloride
  Solubility Score: 6
[2]; in Chloroform
  Solubility Score: 5
[2]; in Cyclohexane
  Solubility Score: 6
[2]; in Cyclohexanol
  Solubility Score: 4
[2]; in Cyclohexanone
  Solubility Score: 4
[2]; in Diacetone Alcohol
  Solubility Score: 4
[2]; in Dichloromethane
  Solubility Score: 5
[2]; in Dimethyl Formamide (DMF)
  Solubility Score: 1
[2]; in Dimethyl Sulfoxide (DMSO)
  Solubility Score: 1
[2]; in Ethyl Acetate
  Solubility Score: 5
[2]; in Hexane
  Solubility Score: 6
[2]; in Methanol
  Solubility Score: 4
[2]; in Methyl Ethyl Ketone (MEK)
  Solubility Score: 5
[2]; in Methyl Isobutyl Ketone (MIBK)
  Solubility Score: 5
[2]; in N-Methyl-2-Pyrrolidone (NMP)
  Solubility Score: 1
[2]; in N-methylformamide
  Solubility Score: 1
[2]; in Propylene Carbonate
  Solubility Score: 5
[2]; in Propylene Glycol Monomethyl Ether
  Solubility Score: 2
[2]; in Propylene Glycol Monomethyl Ether Acetate
  Solubility Score: 5
[2]; in Tetrahydrofuran (THF)
  Solubility Score: 4
[2]; in Toluene
  Solubility Score: 6
[2]; in gamma-Butyrolactone (GBL)
  Solubility Score: 4
[2]; in n-Butyl Acetate
  Solubility Score: 5
[2]; in n-Butyl Acrylate
  Solubility Score: 5
[2]; in p-Xylene
  Solubility Score: 6
[3]; 1-Dimethylamino-2-propanol solution, in 1-Dimethylamino-2-propanol solution, room temp, 300 rpm
  solubility: 20.2 mg/mL
[3]; 1-dimethylamino-2-propanol, in 1-Dimethylamino-2-propanol solution, room temp, 1500 sm
  solubility: 20 mg/mL
[3]; 1-dimethylamino-2-propanol/TEA, in 1-Dimethylamino-2-propanol/TEA, room temp, 300-810 rpm
  solubility: 17.3 mg/mL
[3]; 1-dimethylamino-2-propanol/ethanolamine, in 1-Dimethylamino-2-propanol/Ethanolamine, room temp, 300 rpm
  solubility: 16.6 mg/mL
[3]; 1-dimethylamino-2-propanol/ethanolamine/TEA, in 1-Dimethylamino-2-propanol/Ethanolamine/TEA, room temp, 300-500 rpm
  solubility: 16.5 mg/mL
[3]; 1-dimethylamino-2-propanol/ethylenediamine, in 1-Dimethylamino-2-propanol/Ethylenediamine, room temp, 400-600 rpm
  solubility: 20.1 mg/mL
[3]; 1-methylimidazole, 82 °C, in 1-Methylimidazole, 100 rpm
  solubility: 20.4 mg/mL
[3]; 2-amino-2-methyl-1-propanol, 71 °C, in 2-amino-2-methyl-1-propanol, 400 rpm
  solubility: 20 mg/mL
[3]; 2-amino-2-methyl-1-propanol, 71 °C, in 2-amino-2-methyl-1-propanol, 450 rpm
  solubility: 14.8 mg/mL
[3]; 2-dimethylaminoethanol, 29 °C, in 2-Dimethylaminoethanol, 300 rpm
  solubility: 19.9 mg/mL
[3]; 2-dimethylaminoethanol, in 2-Dimethylaminoethanol, room temp, 300 rpm
  solubility: 20.2 mg/mL
[3]; Dimethyl capramide, in Dimethyl capramide, Room temp, 400 rpm
  solubility: 16 mg/mL
[3]; N-methylformamide, 101 °C, in N-Methylformamide, 400 rpm
  solubility: 13.7 mg/mL
[3]; TEA (triethanolamine), 169 °C, in TEA, 450 rpm (synthetic apigenin)
  solubility: 14.7 mg/mL
[3]; TEA (triethanolamine), in TEA, room temp, 450-590 rpm
  solubility: 20 mg/mL
[3]; TEA/1-Dimethylamino-2-propanol, in TEA/1-Dimethylamino-2-propanol, room temp, 350-450 rpm
  solubility: 17 mg/mL
[3]; TEA/1-Dimethylamino-2-propanol/Ethylenediamine, in TEA/1-Dimethylamino-2-propanol/Ethylenediamine, room temp, 330-600 rpm
  solubility: 20.6 mg/mL
[3]; TEA/2-Dimethylaminoethanol/1-Dimethylamino-2-propanol, in TEA/2-Dimethylaminoethanol/1-Dimethylamino-2-propanol, room temp, 330-400, 1500 sm
  solubility: 15 mg/mL
[3]; TEA/2-Dimethylaminoethanol/1-Dimethylamino-2-propanol, in TEA/2-Dimethylaminoethanol/1-Dimethylamino-2-propanol, room temp, 1500 sm
  solubility: 15 mg/mL
[3]; Triethylene glycol, 156 °C, in Triethylene glycol, 300 rpm
  solubility: 6.11 mg/mL
[3]; diethanolamine, 128 °C, in Diethanolamine, 550 rpm
  solubility: 20.2 mg/mL
[3]; ethanolamine, 29 °C, in Ethanolamine, 350-500 rpm
  solubility: 20.1 mg/mL
[3]; ethanolamine, 76 °C, in Ethanolamine, 300 rpm
  solubility: 20.3 mg/mL
[3]; ethanolamine, 76 °C, in Ethanolamine, 400 rpm (synthetic apigenin)
  solubility: 20.2 mg/mL
[3]; ethanolamine, in Ethanolamine, room temp, 350-740 rpm
  solubility: 20.2 mg/mL
[3]; ethanolamine/TEA, 29 °C, in Ethanolamine/TEA, 300-600 rpm
  solubility: 18 mg/mL
[3]; ethanolamine/TEA, in Ethanolamine/TEA, room temp, 350-500 rpm
  solubility: 16 mg/mL
[3]; ethylenediamine, 28 °C, in Ethylenediamine, 320 rpm
  solubility: 20 mg/mL
[3]; ethylenediamine, in Ethylenediamine, room temp, 320 rpm
  solubility: 20.2 mg/mL
[3]; laurocapram, 98%, 140 °C, in Laurocapram, 500-600 rpm
  solubility: 14 mg/mL
[3]; laurocapram, 98%, in Laurocapram, room temp, 500-600 rpm
  solubility: 13.9 mg/mL
[3]; pyridine, in Pyridine, room temp, 300 rpm
  solubility: 15.8 mg/mL
[4]
  solubility: less than 1 mg/ml
[5]
  HSP δD (dispersion-force component): 18.7 MPa^0.5
  HSP δH (hydrogen-bonding component): 13.9 MPa^0.5
  HSP δP (polar component): 13.5 MPa^0.5
  solvent radius Ra: 6.8 MPa^0.5
